Experimental data reported in ChEMBL document CHEMBL1146657, “A novel 18 beta-glycyrrhetinic acid analogue as a potent and selective inhibitor of 11 beta-hydroxysteroid dehydrogenase 2” (Bioorg Med Chem Lett, 2004).

What was measured:
[1] = target: 11-beta-hydroxysteroid dehydrogenase 1 (Rattus norvegicus) (UniProt P16232); assay: Percent inhibition against 11-beta-hydroxysteroid dehydrogenase 1 of wistar rat liver cytosol at 10 uM was determined using [3H]cortisone
[2] = target: T1, 11-beta-hydroxysteroid dehydrogenase type 2 (Rattus norvegicus) (UniProt P50233); assay: (§1) Percent inhibition against 11-beta-hydroxysteroid dehydrogenase 2 of wistar rat kidney at 10 uM was determined using [3H]cortisol
T1 sequence (whole entry): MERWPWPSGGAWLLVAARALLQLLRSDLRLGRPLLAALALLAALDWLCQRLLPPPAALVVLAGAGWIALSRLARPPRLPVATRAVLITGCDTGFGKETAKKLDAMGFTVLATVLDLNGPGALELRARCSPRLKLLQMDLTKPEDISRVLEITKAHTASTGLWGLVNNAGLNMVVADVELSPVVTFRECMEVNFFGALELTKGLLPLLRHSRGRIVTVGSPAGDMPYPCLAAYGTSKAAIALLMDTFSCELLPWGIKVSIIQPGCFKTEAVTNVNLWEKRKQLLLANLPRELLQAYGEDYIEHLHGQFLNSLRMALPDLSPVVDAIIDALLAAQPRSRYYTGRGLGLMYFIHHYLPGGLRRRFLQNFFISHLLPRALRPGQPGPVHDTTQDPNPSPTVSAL

[3] = target: T2, 11-beta-hydroxysteroid dehydrogenase type 2 (Rattus norvegicus, UniProt P50233); assay: as §1
T2 sequence (P50233 whole entry): T1 sequence (whole entry)

Sequence of 11-beta-hydroxysteroid dehydrogenase 1 (Rattus norvegicus) (P16232 whole entry, looked up): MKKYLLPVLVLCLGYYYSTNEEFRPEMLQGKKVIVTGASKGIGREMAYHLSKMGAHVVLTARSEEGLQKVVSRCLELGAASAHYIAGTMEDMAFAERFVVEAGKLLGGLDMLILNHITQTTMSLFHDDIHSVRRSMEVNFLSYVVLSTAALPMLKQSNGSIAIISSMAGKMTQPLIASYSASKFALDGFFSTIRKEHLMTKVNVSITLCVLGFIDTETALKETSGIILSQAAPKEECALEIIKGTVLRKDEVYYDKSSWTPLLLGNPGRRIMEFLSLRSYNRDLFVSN

| inhibition [1] | inhibition [2] | IC50 [3] | Structure (SMILES) |
| --- | --- | --- | --- |
| 85% | 101% | – | CC1(C)[C@@H](O)CC[C@]2(C)[C@H]3C(=O)C=C4[C@@H]5C[C@@](C)(C(=O)O)CC[C@]5(C)CC[C@@]4(C)[C@]3(C)CC[C@@H]12 |
| 90% | 103% | – | CC1(C)C2CC[C@]3(C)C(C(=O)C=C4[C@@H]5C[C@@](C)(C(=O)NC6CC6)CC[C@]5(C)CC[C@]43C)[C@@]2(C)CC[C@@H]1O (some centres not stated) |
| 36% | 92% | 4 pM | CC1(C)C2CC[C@]3(C)C(C(=O)C=C4[C@@H]5C[C@@](C)(C(=O)NCCO)CC[C@]5(C)CC[C@]43C)[C@@]2(C)CC[C@@H]1O (some centres not stated) |
| 71% | 25% | – | CC1(C)C2CC[C@]3(C)C(C(=O)C=C4[C@@H]5C[C@@](C)(C(=O)NC6CCOC6=O)CC[C@]5(C)CC[C@]43C)[C@@]2(C)CC[C@@H]1O (some centres not stated) |

The remaining lines, values behind:

| Structure (SMILES) | inhibition [1] | inhibition [2] | IC50 [3] |
| --- | --- | --- | --- |
| CC1(C)C2CC[C@]3(C)C(C(=O)C=C4[C@@H]5C[C@@](C)(C(=O)NCCN6CCOCC6)CC[C@]5(C)CC[C@]43C)[C@@]2(C)CC[C@@H]1O (some centres not stated) | 19% | 66% | – |
| CC1(C)C2CC[C@]3(C)C(C(=O)C=C4[C@@H]5C[C@@](C)(C(=O)NN6CCOCC6)CC[C@]5(C)CC[C@]43C)[C@@]2(C)CC[C@@H]1O (some centres not stated) | 34% | 20% | – |
| CCOC(=O)[C@H](C)NC(=O)[C@@]1(C)CC[C@]2(C)CC[C@]3(C)C(=CC(=O)C4[C@@]5(C)CC[C@H](O)C(C)(C)C5CC[C@]43C)[C@@H]2C1 (some centres not stated) | 25% | 35% | – |
| CC1(C)C2CC[C@]3(C)C(C(=O)C=C4[C@@H]5C[C@@](C)(C(=O)NCCCCCO)CC[C@]5(C)CC[C@]43C)[C@@]2(C)CC[C@@H]1O (some centres not stated) | 88% | 98% | – |
